Reference: PubChem BioAssay (NCI)
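Here, GI50 denotes the concentration required for 50% inhibition of growth. The concentration for full growth arrest is given as TGI.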

How the values were obtained:
Assay in all cases: NCI tumour cell line growth inhibition, 384-well format
[1] = system: SK-MEL-28 melanoma
[2] = system: U251 glioblastoma
[3] = system: UACC-257 melanoma
[4] = system: HCT-15 colon
[5] = system: MDA-MB-468 breast
[6] = system: RPMI-8226 leukemia
[7] = system: SR leukemia
[8] = system: HOP-92 NSCLC
[9] = system: OVCAR-8 ovarian
[10] = system: COLO 205 colon
[11] = system: OVCAR-5 ovarian
[12] = system: NCI-H23 lung
[13] = system: MOLT-4 leukemia

COC(=O)c1ccc2c(C(=Nc3ccc(N(C)C(=O)CN4CCN(C)CC4)cc3)c3ccccc3)c(O)[nH]c2c1
GI50 [1]: 1.69 µM | TGI [1]: 3.08 µM | GI50 [2]: 1.46 µM | TGI [2]: 2.86 µM | GI50 [3]: 1.33 µM | TGI [3]: 2.61 µM | GI50 [4]: 1.76 µM | TGI [4]: 3.33 µM | GI50 [5]: 1.67 µM | TGI [5]: 3.08 µM | GI50 [6]: 1.34 µM | TGI [6]: 2.62 µM | GI50 [7]: 0.734 µM | TGI [7]: 2.02 µM | GI50 [8]: 0.95 µM | TGI [8]: 2.6 µM | GI50 [9]: 1.58 µM | TGI [9]: 2.97 µM | GI50 [10]: 1.75 µM | TGI [10]: 3.14 µM | GI50 [11]: 1.3 µM | TGI [11]: 2.69 µM | GI50 [12]: 1.79 µM | TGI [12]: 5.17 µM | GI50 [13]: 0.73 µM | TGI [13]: 2.09 µM
